The source of these data is patent publication US7241795B2, “Synthesis and antimicrobial activity of novel dicationic “reversed amidines”” (The University of North Carolina at Chapel Hill, priority 2000, dated 2007).

Values after ≈ are worked out from the molar mass of the structure shown. Structures can show the parent of a compound that is named as a salt. Where only a bound is given, the exact number is not on record here.

One series has as its system Aspergillus fumigatus. Description: Antifungal broth macrodilution susceptibility testing (MIC/MFC), mold. Particulars: Aspergillus fumigatus, strain 168.95; for MFC: read-out: Aspergillus fumigatus MFC; for MIC: read-out: Aspergillus fumigatus MIC. The series is classed as cell-based.
A further series has as its system d(CGCGAATTCGCG)2. Description: DNA thermal melting (ΔTm). Format: binding. To be noted: oligo = d(CGCGAATTCGCG)2.
For the next series, the system named is M. tuberculosis H37Rv. The series is described as follows: Microplate Alamar Blue Assay (MABA) in BACTEC 12B medium. Particulars: for MIC / inhibition at 6.25 µg/mL: Mycobacterium tuberculosis, H37RV; for MIC: lowest concentration effecting ≧90% reduction of fluorescence, read-out: MTb MIC; for inhibition at 6.25 µg/mL: % Inhibition at 6.25 μg/ml, read-out: MTb % Inh. Format: cell-based, Mycobacterium tuberculosis. In general terms: The colour change of resazurin is a common sign of viable cells or microbes.

A further series deals with Candida albicans. Description: Antifungal broth macrodilution susceptibility testing (MIC/MFC), yeast. Format: cell-based. To be noted: for MFC / MIC: Candida albicans, reference strain C. albicans A39; for MFC: read-out: C. albicans MFC; for MIC: read-out: C. albicans MIC.
In a further series the test system is poly dA•dT. Description: DNA thermal melting (ΔTm). The series is classed as binding.

A word on the melting point: it is the temperature, or range, at which the solid turns liquid. For `c1ccc(N=Nc2ccc(-c3ccc(-c4ccc(N=Nc5ccccn5)cc4)o3)cc2)nc1` (as salt: hydrochloride) (hydrate or solvate) [Compound 6a, 2,5-Bis[4-(2-pyridylimino)aminophenyl]furan], the melting point fell in the range of 221 to 223 °C.

`Cc1cc(N=Nc2ccc3ccccc3n2)ccc1-c1ccc(-c2ccc(N=Nc3ccc4ccccc4n3)cc2C)o1` (as salt: hydrochloride) [Compound 6i, 2,5-Bis[2-methyl-4-(2-quinolylimino)aminophenyl]furan]: the melting point lay in the range of 168 to 169 °C.

Compound `Cc1ccc(N=Nc2ccc(-c3ccc(-c4ccc(N=Nc5ccc(C)cn5)cc4C)o3)c(C)c2)nc1` (as salt: hydrochloride) [Compound 6j, 2,5-Bis[2-methyl-4-(5-methyl-2-pyridylimino)aminophenyl]furan] showed a melting point of 156 to 158 °C.

In turn, `COc1cc(N=Nc2ccccn2)ccc1-c1ccc(-c2ccc(N=Nc3ccccn3)cc2OC)o1` (as salt: hydrochloride) [Compound 6k, 2,5-Bis[2-methoxy-4-(2-pyridylimino)aminophenyl]furan] came in with a melting point of 196 to 197 °C.

`Clc1cc(N=Nc2ccccn2)ccc1-c1ccc(-c2ccc(N=Nc3ccccn3)cc2Cl)o1` (as salt: hydrochloride) [Compound 6l, 2,5-Bis[2-chloro-4-(2-pyridylimino)aminophenyl]furan]: the melting point lay within 189 to 190 °C.

As for `N=C(Nc1ccc(-c2ccc(-c3ccc(NC(=N)c4ccccc4)cc3)s2)cc1)c1ccccc1` (hydrate or solvate) [DB 653, 2,5-Bis[4-(benzimidoyl)aminophenyl]thiophene], the melting point was 284 to 286 °C (dec.).

As usually defined, the MFC is the smallest concentration meeting the test's criterion for killing the fungus. In general, MIC refers to the smallest concentration in the dilution series that meets the test's criterion for growth inhibition. With `Cc1cc(NC(=N)N)ccc1-c1ccc(-c2ccc(NC(=N)N)cc2C)o1.Cl.Cl` [Compound 5b, 2,5-Bis(4-guanidino-2-methylphenyl)furan dihydrochloride], the melting point is 265 to 271 °C (dec.). In the series with Aspergillus fumigatus, the MFC turned out to be 33.4 µg/mL and the minimal inhibitory concentration (MIC) came to 33.4 µg/mL. In addition, the “DNA Affinities ΔTm (oligo)” value in the series on d(CGCGAATTCGCG)2 is reported as 6.9. The MIC in the series with M. tuberculosis H37Rv fell in the range of 1 to 3 µg/mL. In addition, in the series on Candida albicans, the “activity against C. albicans, in words” value is reported as “fungicidal”; the minimum fungicidal concentration (MFC) was 2.08 µg/mL; the MIC was in the range of 1 to 3 µg/mL. For the same compound, the “DNA Affinities ΔTm (AT)” value with poly dA•dT amounted to 17.8.

Turning to `Cl.Cl.N=C(N)Nc1ccc(-c2ccc(-c3ccc(NC(=N)N)cc3Cl)o2)c(Cl)c1` [Compound 5d, 2,5-Bis(2-chloro-4-guanidinophenyl)furan dihydrochloride], the melting point was 300 to 304 °C (dec.). Besides, in the series on Aspergillus fumigatus, the MFC was determined as 100 µg/mL and the MIC was 100 µg/mL. Moreover, the “DNA Affinities ΔTm (oligo)” value with d(CGCGAATTCGCG)2 was determined as 4.7. Besides, in the series with M. tuberculosis H37Rv, the MIC was 4 µg/mL. In the series with Candida albicans, the MFC was determined as 100 µg/mL and the MIC was 10 µg/mL. Also, the “DNA Affinities ΔTm (AT)” value in the series with poly dA•dT worked out at 26.1.

As to `Cc1ccc(C(=N)Nc2ccc(-c3ccc(-c4ccc(NC(=N)c5ccc(C)cc5)cc4)o3)cc2)cc1.Cl.Cl` [Compound 6c, 2,5-Bis [4-[(4-methylbenzimidoyl)amino]phenyl]furan Dihydrochloride], the melting point fell in the range of 348 to 350.5 °C. For the same compound, the “DNA Affinities ΔTm (oligo)” value in the series with d(CGCGAATTCGCG)2 is 15.4. Moreover, the MIC in the series with M. tuberculosis H37Rv is at most 6.25 µg/mL. The MIC with Candida albicans is above 100 µg/mL. Further, the “DNA Affinities ΔTm (AT)” value in the series with poly dA•dT is above 28.

Regarding `c1cc(-c2ccc(-c3ccc(N=NC4CCCCC4)cc3)o2)ccc1N=NC1CCCCC1` [Compound 6d, 2,5-Bis[4-(cyclohexylimino)aminophenyl]furan], in the series on Aspergillus fumigatus, the MFC was above 100 µg/mL and the MIC was determined as 100 µg/mL (≈ 227 µM). In addition, the “DNA Affinities ΔTm (oligo)” value in the series with d(CGCGAATTCGCG)2 is given as 12.8. In addition, in the series on M. tuberculosis H37Rv, the “activity against M. tuberculosis, in words” value is reported as “some activity” and the minimal inhibitory concentration (MIC) is at most 6.25 µg/mL. Further, the MIC with Candida albicans was above 100 µg/mL. Further, the “DNA Affinities ΔTm (AT)” value in the series on poly dA•dT came to 26.7.

`Br.Br.CC(=N)Nc1ccc(-c2ccc(-c3ccc(NC(C)=N)cc3)o2)cc1` [Compound 6e, 2,5-Bis[4-(acetimidoyl)aminophenyl]furan Dihydrobromide]: the melting point was 307 to 309.5 °C (dec.). Moreover, in the series on Aspergillus fumigatus, the MFC is above 100 µg/mL and the MIC was 100 µg/mL. The “DNA Affinities ΔTm (oligo)” value in the series on d(CGCGAATTCGCG)2 was 6.0. In addition, the inhibition at 6.25 µg/mL with M. tuberculosis H37Rv turned out to be 0%. Further, the MIC in the series with Candida albicans is above 100 µg/mL. The “DNA Affinities ΔTm (AT)” value in the series with poly dA•dT is reported as 15.9.

Turning to `Br.Br.CC(=N)Nc1ccc(-c2ccc(-c3ccc(NC(C)=N)cc3C)o2)c(C)c1` [Compound 6f, 2,5-Bis [4-(acetimidoyl)amino-2-methylphenyl]furan Dihydrobromide], the melting point was 282.5 to 284 °C (dec.). Further, the MIC with Aspergillus fumigatus is above 100 µg/mL. Besides, the “DNA Affinities ΔTm (oligo)” value in the series with d(CGCGAATTCGCG)2 was 2.4. For the same compound, in the series on M. tuberculosis H37Rv, the inhibition at 6.25 µg/mL amounted to 18%. In the series on Candida albicans, the MIC was above 100 µg/mL. In the series with poly dA•dT, the “DNA Affinities ΔTm (AT)” value was 14.5.
